The source of these data is ChEMBL document CHEMBL1201862, “PubChem BioAssay data set” (2004).

The source made the active and inactive calls. A value given as a limit tells only on which side of the number the result lay.

A short description of experiment [1]: Trypanosoma cruzi growth suppression in host cells – NIH3T3 host cells, beta-gal luminescence, confirmation (AID 2044).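 Also: intracellular parasites grown in NIH/3T3 mouse fibroblasts as host cells; luminescent beta-galactosidase reporter signal from transgenic T. cruzi replicating inside host cells; inhibitors lower the luminescence signal.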 Format: functional, cell-based.
The test system of another experiment is INS1. The experiment can be described thus: INS-1E survival protection against cytokine death – cell-based, luminescence, retest, dose response (AID 449756).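 Also: cell death triggered by IL-1 beta plus TNF-alpha plus IFN-gamma mixture; protective hits raise ATP signal compared with cytokine alone wells.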 Format: functional. Particulars: Rattus norvegicus.
The target of experiment [2] is T1, Sentrin-specific protease 7 (Homo sapiens, UniProt Q9BQF6).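 Also: Luminescence-based dose-response confirmation of ultra-high-throughput screening hits, measuring inhibition of SENP7.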
T1 sequence (Q9BQF6 whole entry): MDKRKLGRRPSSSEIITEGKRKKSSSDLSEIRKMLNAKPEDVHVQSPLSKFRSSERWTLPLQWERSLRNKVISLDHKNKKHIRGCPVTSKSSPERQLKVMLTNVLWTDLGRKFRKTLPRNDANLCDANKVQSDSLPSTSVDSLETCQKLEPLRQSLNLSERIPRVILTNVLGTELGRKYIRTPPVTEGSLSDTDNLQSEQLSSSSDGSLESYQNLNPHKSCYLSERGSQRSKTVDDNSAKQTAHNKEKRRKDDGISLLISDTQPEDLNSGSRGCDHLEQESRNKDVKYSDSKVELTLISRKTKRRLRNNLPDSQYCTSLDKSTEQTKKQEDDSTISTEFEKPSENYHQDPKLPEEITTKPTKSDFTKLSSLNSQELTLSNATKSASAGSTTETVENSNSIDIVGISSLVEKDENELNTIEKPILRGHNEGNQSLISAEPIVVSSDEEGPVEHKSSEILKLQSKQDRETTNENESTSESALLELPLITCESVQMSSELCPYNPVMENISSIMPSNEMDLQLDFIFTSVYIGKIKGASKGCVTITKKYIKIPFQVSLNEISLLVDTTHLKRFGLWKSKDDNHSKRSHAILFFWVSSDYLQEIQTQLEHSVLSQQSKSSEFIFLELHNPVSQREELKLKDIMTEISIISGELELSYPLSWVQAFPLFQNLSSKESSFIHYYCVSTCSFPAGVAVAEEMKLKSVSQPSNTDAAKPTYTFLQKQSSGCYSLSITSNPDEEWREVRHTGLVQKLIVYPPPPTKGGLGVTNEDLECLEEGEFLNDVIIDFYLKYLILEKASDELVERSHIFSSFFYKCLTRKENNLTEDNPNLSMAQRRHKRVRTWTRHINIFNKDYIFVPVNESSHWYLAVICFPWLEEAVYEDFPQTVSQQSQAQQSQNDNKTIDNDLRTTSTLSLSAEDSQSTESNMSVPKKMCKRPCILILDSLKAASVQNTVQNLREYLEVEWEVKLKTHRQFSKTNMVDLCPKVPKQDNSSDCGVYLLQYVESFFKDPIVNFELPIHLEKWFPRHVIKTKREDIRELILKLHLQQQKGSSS
Type of experiment: functional.

A further experiment concerns the target T2, Bcl-2-related protein A1 (Mus musculus, UniProt Q07440).
T2 sequence (Q07440 whole entry): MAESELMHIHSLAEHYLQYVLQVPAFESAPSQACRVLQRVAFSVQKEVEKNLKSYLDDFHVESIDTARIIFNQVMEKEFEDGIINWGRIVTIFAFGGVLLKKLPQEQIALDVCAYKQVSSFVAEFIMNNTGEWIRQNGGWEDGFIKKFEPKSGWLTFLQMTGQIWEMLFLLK
The experiment is described as follows: displacement of Bid BH3 peptide from Bfl-1 – biochemical, fluorescence polarization, FITC-Bid, mouse, primary screen (AID 432). On the technique in general: Fluorescence polarisation rises when a labelled molecule tumbles more slowly, as on binding a larger partner.

The next experiment deals with T3, Insulin-degrading enzyme (Homo sapiens, UniProt P14735).
T3 sequence (P14735 whole entry): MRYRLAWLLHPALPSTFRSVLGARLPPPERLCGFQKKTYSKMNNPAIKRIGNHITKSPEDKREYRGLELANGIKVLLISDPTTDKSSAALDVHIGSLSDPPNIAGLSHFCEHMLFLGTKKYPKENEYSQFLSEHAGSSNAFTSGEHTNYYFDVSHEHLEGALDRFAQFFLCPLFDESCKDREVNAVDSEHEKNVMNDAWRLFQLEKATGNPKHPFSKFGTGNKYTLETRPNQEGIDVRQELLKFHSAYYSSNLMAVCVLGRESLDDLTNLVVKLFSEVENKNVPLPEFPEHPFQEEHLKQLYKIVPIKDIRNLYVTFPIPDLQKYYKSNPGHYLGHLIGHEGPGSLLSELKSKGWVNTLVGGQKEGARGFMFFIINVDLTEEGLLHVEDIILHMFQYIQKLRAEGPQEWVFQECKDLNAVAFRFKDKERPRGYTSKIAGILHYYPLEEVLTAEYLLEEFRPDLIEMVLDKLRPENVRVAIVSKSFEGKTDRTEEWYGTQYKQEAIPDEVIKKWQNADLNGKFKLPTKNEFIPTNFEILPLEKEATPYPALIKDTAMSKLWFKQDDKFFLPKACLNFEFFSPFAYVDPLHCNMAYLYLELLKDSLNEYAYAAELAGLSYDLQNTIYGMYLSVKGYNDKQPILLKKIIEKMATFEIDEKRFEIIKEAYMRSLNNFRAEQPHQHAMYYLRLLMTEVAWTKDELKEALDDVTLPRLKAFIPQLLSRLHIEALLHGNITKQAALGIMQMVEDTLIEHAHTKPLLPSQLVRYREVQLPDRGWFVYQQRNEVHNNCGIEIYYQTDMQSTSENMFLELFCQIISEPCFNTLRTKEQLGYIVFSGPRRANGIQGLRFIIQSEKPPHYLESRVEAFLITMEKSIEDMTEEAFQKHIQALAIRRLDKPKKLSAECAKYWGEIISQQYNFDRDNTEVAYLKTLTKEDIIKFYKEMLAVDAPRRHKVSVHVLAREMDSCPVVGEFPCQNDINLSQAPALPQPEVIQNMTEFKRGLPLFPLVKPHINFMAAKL
The experiment is described as follows: recombinant IDE activation, cell-free – biochemical, fluorescence polarization, counter-screen for IDE activator project, dose response (AID 588681).

For experiment [3], the target named is Alkaline phosphatase, tissue-nonspecific isozyme (Homo sapiens, UniProt P05186).
Alkaline phosphatase, tissue-nonspecific isozyme, sequence (P05186 whole entry): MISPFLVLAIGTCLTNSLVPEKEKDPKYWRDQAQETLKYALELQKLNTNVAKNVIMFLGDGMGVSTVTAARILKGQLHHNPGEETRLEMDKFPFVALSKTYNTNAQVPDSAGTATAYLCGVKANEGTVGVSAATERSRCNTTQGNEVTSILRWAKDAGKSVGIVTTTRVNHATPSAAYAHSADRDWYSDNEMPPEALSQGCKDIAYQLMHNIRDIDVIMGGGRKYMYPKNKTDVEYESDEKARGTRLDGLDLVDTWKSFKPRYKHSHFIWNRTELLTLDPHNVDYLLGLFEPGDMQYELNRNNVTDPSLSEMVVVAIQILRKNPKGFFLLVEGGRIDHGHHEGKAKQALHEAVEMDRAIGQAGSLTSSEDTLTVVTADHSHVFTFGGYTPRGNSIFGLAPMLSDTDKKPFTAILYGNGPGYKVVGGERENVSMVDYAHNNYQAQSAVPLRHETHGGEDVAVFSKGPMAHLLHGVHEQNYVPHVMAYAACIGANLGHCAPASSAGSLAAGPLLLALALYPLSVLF
For experiment [4], the target named is Voltage-gated N-type calcium channel alpha-1B subunit/Amyloid beta A4 precursor protein-binding family A member 1 (Homo sapiens, UniProt Q00975+Q02410). Type of experiment: protein assay.
Experiment [5] deals with Ras and Rab interactor 1/Tyrosine-protein kinase ABL1 (Homo sapiens, UniProt P00519+Q13671). Type of experiment: functional.
Ras and Rab interactor 1/Tyrosine-protein kinase ABL1, sequence (P00519 whole entry): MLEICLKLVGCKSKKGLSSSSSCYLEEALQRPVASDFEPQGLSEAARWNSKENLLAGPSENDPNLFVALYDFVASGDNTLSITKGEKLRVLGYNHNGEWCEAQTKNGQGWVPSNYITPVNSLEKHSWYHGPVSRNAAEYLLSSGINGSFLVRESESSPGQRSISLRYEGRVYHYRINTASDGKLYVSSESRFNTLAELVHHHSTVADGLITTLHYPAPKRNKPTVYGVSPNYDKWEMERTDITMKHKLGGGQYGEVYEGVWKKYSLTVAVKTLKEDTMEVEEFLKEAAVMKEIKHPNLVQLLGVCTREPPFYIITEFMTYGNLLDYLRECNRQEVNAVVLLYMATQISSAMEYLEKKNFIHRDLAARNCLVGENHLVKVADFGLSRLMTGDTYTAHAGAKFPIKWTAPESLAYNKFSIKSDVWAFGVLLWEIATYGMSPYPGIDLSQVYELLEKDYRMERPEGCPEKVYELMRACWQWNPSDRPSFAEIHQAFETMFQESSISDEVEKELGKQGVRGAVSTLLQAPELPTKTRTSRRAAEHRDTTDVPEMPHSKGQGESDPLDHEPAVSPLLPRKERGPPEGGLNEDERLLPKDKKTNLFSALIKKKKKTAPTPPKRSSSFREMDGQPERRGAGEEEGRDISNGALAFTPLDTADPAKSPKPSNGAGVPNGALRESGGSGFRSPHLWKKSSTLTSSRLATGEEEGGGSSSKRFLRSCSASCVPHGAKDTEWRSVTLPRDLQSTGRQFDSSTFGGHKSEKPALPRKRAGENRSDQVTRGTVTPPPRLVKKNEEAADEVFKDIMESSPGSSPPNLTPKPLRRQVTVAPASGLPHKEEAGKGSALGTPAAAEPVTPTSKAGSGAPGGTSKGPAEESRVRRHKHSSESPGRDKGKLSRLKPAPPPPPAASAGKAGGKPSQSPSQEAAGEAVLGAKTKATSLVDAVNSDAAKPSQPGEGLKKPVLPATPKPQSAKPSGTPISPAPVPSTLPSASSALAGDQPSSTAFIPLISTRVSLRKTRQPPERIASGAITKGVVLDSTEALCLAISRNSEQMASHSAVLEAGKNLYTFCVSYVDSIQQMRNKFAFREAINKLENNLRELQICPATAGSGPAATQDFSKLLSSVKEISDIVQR
Ras and Rab interactor 1/Tyrosine-protein kinase ABL1, sequence (Q13671 whole entry): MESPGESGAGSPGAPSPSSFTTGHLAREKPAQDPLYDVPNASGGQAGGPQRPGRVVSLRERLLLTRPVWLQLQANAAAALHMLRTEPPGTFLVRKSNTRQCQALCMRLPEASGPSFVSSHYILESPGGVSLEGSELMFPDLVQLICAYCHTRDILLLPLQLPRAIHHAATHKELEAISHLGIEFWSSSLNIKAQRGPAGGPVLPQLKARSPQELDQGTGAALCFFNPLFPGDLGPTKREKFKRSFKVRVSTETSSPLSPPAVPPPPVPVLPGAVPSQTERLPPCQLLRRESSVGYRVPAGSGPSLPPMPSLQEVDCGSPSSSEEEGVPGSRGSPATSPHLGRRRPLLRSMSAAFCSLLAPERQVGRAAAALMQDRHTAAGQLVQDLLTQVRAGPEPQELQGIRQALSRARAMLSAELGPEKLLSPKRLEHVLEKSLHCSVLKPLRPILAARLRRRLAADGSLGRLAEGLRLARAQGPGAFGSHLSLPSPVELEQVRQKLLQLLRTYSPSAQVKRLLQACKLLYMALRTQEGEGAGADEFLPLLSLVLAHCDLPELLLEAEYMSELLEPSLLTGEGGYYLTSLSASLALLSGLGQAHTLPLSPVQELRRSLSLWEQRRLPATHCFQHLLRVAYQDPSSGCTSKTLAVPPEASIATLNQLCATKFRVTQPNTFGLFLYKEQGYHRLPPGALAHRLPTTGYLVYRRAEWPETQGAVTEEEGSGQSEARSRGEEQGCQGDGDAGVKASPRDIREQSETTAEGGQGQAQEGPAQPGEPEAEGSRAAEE

Take `CCCCCCCCCCOC(=O)C[n+]1c(COc2ccccc2C)n(C)c2ccccc21`: in experiment [1], the EC50 (in general, the concentration that produces a half-maximal response) is 0.68 µM (active). Also, the AC50 (as a rule, the midpoint of the concentration-response curve, whichever way the signal moves) in the experiment on INS1 is 2.16 µM (active).
Take `Oc1nc(Nc2ccccc2)cc2ccccc12`: the results for the IC50 (in experiment [2]; on Bcl-2-related protein A1) were 0.75 µM (active) and > 100 µM (not active), respectively.
In the case of `COc1cc(OC)c(-c2c3cc(O)c(=O)cc-3oc3cc(O)c(O)cc23)cc1OC`, the results for the EC50 (on Insulin-degrading enzyme; in experiment [3]) were > 54.7 µM (inactive) and > 100 µM (not active), respectively. Besides, the figures for the IC50 in experiment [4] and in experiment [5] were 12.5 µM (active) and 0.724 µM (active), respectively.
